In brackets after ≈: the same amount, converted by molar mass.
Tests used:
[1] = biological target: T1, Quinolone resistance protein NorA (Staphylococcus aureus) (UniProt P0A0J7); conditions: 1199B
T1 sequence (whole entry): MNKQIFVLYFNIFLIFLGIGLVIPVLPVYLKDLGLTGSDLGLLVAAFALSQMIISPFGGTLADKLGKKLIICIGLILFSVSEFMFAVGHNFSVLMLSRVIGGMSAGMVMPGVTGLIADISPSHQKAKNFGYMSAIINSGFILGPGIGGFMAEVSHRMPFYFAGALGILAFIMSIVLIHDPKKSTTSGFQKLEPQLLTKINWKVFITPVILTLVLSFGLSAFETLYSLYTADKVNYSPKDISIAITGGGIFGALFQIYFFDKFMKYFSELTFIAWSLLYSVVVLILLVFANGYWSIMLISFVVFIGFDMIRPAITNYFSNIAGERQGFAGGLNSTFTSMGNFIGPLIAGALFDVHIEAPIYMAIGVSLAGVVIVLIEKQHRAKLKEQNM
Description: Inhibition of Staphylococcus aureus 1199B norA efflux pump by spectrophotometry

[2] = system: Staphylococcus aureus; test: microbe, parasite or virus in culture; conditions: Staphylococcus aureus, 1199, 24 h
Description: Antimicrobial activity against Staphylococcus aureus 1199 after 24 hrs

[3] = system: Staphylococcus aureus; test: microbe, parasite or virus in culture; conditions: 1199B, 24 h
Description: Antimicrobial activity against Staphylococcus aureus 1199B after 24 hrs

| SMILES | MEC [1] [µg/mL] | MIC [2] [µg/mL] | MIC [3] [µg/mL] |
| --- | --- | --- | --- |
| COC(=O)[C@H]1[C@H]2C[C@@H]3c4[nH]c5cc(OC)ccc5c4CCN3C[C@H]2C[C@@H](OC(=O)c2cc(OC)c(OC)c(OC)c2)[C@@H]1OC | 25 |  |  |
| O=C(O)c1cn(C2CC2)c2cc(N3CCNCC3)c(F)cc2c1=O [CIPROFLOXACIN] |  | 0.25 (≈ 0.754 µM) | 8 (≈ 24.1 µM) |

Source: ChEMBL document CHEMBL1240453, “Substituted dihydronaphthalenes as efflux pump inhibitors of Staphylococcus aureus” (2010)
